Where a name gives a salt, the structure may show the parent alone.
Molecular target: T1, human CCR9 receptor (Homo sapiens, UniProt P51686)
T1 construct: expressed in transfected cells
T1 sequence (P51686 1-369): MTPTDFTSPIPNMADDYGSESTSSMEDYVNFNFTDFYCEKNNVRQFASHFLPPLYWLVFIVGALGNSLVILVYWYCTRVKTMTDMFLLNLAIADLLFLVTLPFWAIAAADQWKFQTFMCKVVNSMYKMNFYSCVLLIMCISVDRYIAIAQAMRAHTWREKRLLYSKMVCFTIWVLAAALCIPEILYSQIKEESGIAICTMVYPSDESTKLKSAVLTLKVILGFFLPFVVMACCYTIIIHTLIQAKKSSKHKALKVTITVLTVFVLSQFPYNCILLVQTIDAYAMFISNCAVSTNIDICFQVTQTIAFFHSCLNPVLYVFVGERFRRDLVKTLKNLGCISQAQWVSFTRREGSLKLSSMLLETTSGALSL
Assay: CCR9 FLIPR/FlexStation Assay (inhibition of TECK induced calcium mobilization)
Assay type: cell-based
Settings: CCR9 antagonist activity; TECK induced calcium mobilization in CCR9-Flp-CHO cells stably over expressing human CCR9; rhTECK at EC70; read-out: Binding IC50
Source text: Exemplary methods are described in US Publication Nos. US2004/0180892 and US2005/0049286, which are incorporated herein by reference. An exemplary assay for determining CCR9 antagonist activity of the compounds provided herein is CCR9 FLIPR/FlexStation Assay. In certain embodiments, the following protocol is used for the assay:
CCR9 FLIPR/FlexStation Assay Protocol
Calcium assay in FLIPR/FlexStation determines inhibitors of TECK induced calcium mobilization in CCR9-Flp-CHO cells that stably over express human CCR9 receptor. CCR9-Flp-CHO cells are seeded at 25,000 cells/well in a clear bottom, black wall 96-well plate (Greiner #655090) one day prior to assay. Cells are grown in a tissue culture incubator at 37° C. with 5% CO2 for 18 to 24 hours.
Wash buffer and dye loading buffer are prepared fresh each time the assay is performed. Wash buffer is prepared according to the following protocol: 20 ml 10×HBSS (Invitrogen Gibco #14065-056), 4 ml 1M HEPES (Sigma H3784), 174 ml sterile deionized water; then add 140 mg probenecid (Sigma P8761) dissolved in 2 ml 1M NaOH (Fisher S318) to solution and pH to 7.4. This wash buffer contains 1×HBSS, 20 mM HEPES and 2.5 mM probenecid. For one 96-well plate, dye loading buffer is prepared as following: 11 ml wash buffer, 44 μl Fluo-4/pluoronic acid mix (prepared from 22 μL aliquot of 2 mM Fluo-4 (Molecular Probes F14202, 1 mg/tube)+22 μl 20% pluronic F-127 (Molecular Probes P3000MP).
Cells are loaded with dye according to the protocol below:
1. Prepare wash buffer with 1×HBSS/HEPES at room temperature
2. Prepare loading buffer (keep in dark)
3. Aspirate culture media and wash with 100 μl wash buffer per well×1
4. Add 100 μl dye loading buffer to each well
5. Incubate at 37° C. for 30 minutes
6. Aspirate loading buffer
7. Wash with 100 μl wash buffer per well×3
8. Add 100 μl wash buffer per well
9. Incubate at 37° C. for 30 minutes
10. Assay plate with FLIPR or FlexStation
10 mM stock compounds in DMSO are prepared and diluted in DMSO to 1 mM. Compounds are diluted in wash buffer to make 8 point series dilutions containing same final concentration of DMSO (1%). Compounds are tested in duplicate wells for each point. Ligand rhTECK (R&D Systems 334-TK) was diluted to 6× of its EC70 with wash buffer. Appropriate amount of 6× ligand is added to each well. Data is analyzed using XLfit3 software to calculate IC50 value of antagonist activity for each compound.
CCR9 antagonist activity of exemplary compounds was determined using CCR9 FLIPR/FlexStation Assay as described in Section 4.4 and is provided in Table 1 below. The IC50 for the compounds are represented as follows: A≦100 nM; B>100-500 nM; C>500 nM.

SMILES | IC50
O=C(O)c1sccc1NS(=O)(=O)c1c(Cl)cc(C(F)(F)F)cc1Cl [Example 51, 3-[2,6-dichloro-4-(trifluoromethyl)phenylsulfonamido]thiophene-2-carboxylic acid, disodium salt] | > 500 nM
Cc1cc(C(C)(C)C)cc(C)c1S(=O)(=O)Nc1ccsc1C(=O)O [Example 62, 3-(4-tert-butyl-2,6-dimethylphenylsulfonamido)thiophene-2-carboxylic acid, disodium salt] | > 500 nM
CC(C)(C)c1ccc(S(=O)(=O)Nc2ccsc2C(=O)O)c(F)c1 [Example 29, 3-(4-tert-butyl-2-fluorophenylsulfonamido)thiophene-2-carboxylic acid, disodium salt] | ≤ 100 nM
CC(C)(C)c1ccc(S(=O)(=O)Nc2ccsc2C(=O)O)c(-c2cccc(F)c2)c1 [Example 54, 3-(5-tert-butyl-3′-fluorobiphenyl-2-ylsulfonamido)thiophene-2-carboxylic acid, disodium salt] | 100 to 500 nM
CCC(C)(C)c1ccc(S(=O)(=O)Nc2ccsc2C(=O)O)cc1 [Example 18, 3-(4-(1,1-Dimethylpropyl)phenylsulfonamido)thiophene-2-carboxylic acid, sodium salt] | 100 to 500 nM
CC(C)(C)c1ccc(S(=O)(=O)Nc2c(C(=O)O)sc3ccc(F)cc23)cc1 [Example 25, 3-(4-tert-butylphenylsulfonamido)-5-fluorobenzo[b]thiophene-2-carboxylic acid, disodium salt] | > 500 nM
O=C(O)c1sccc1NS(=O)(=O)c1ccc(F)cc1C1CCCC1 [Example 35, 3-(2-cyclopentyl-4-fluorophenylsulfonamido)thiophene-2-carboxylic acid, disodium salt] | > 500 nM
O=C(O)c1sccc1NS(=O)(=O)c1cccc(-c2ccccc2)c1 [Example 40, 3-(biphenyl-3-ylsulfonamido)thiophene-2-carboxylic acid, disodium salt] | > 500 nM
CC(C)(C)c1ccc(S(=O)(=O)Nc2ccsc2C(=O)O)c(O)c1 [Example 9, 3-(4-tert-butyl-2-hydroxyphenylsulfonamido)thiophene-2-carboxylic acid, trisodium salt] | 100 to 500 nM
CC(C)(C)c1ccc(S(=O)(=O)Nc2ccsc2C(=O)O)c(-c2ccc(Cl)cc2)c1 [Example 2, 3-(5-tert-butyl-4′-chlorobiphenyl-2-ylsulfonamido)thiophene-2-carboxylic acid, disodium salt] | > 500 nM
CC(C)(C)c1ccc(S(=O)(=O)Nc2ccsc2C(=O)O)c(Cl)c1 [Example 6, 3-(4-tert-Butyl-2-chlorophenylsulfonamido)thiophene-2-carboxylic acid, disodium salt] | ≤ 100 nM
O=C(O)c1sccc1NS(=O)(=O)c1ccc(N2CCOCC2)cc1 [Example 23, 3-[(4-morpholin-4-yl)phenylsulfonamido]thiophene-2-carboxylic acid, disodium salt] | > 500 nM
CC(C)(C)c1ccc(S(=O)(=O)Nc2ccsc2C(=O)O)cc1 [Example 16, 3-(4-tert-butylphenylsulfonamido)thiophene-2-carboxylic acid, disodium salt] | ≤ 100 nM
CN(c1ccsc1C(=O)O)S(=O)(=O)c1ccc(C(C)(C)C)cc1 [Example 15, 3-(4-tert-butyl-N-methylphenylsulfonamido)thiophene-2-carboxylic acid, sodium salt] | > 500 nM
CCCCCc1cc(C(C)(C)C)ccc1S(=O)(=O)Nc1ccsc1C(=O)O [Example 58, 3-(4-tert-butyl-2-pentylphenylsulfonamido)thiophene-2-carboxylic acid, disodium salt] | 100 to 500 nM
CC(C)(C)c1ccc(S(=O)(=O)Nc2ccsc2C(=O)O)c(C#N)c1 [Example 10, 3-(4-tert-butyl-2-cyanophenylsulfonamido)thiophene-2-carboxylic acid, disodium salt] | ≤ 100 nM

SMILES | IC50
Cc1cccc(C)c1-c1cccc(S(=O)(=O)Nc2ccsc2C(=O)O)c1 [Example 41, 3-(2′,6′-dimethylbiphenyl-3-ylsulfonamido)thiophene-2-carboxylic acid, disodium salt] | > 500 nM
CC(C)(C)c1ccc(S(=O)(=O)Nc2ccsc2C(=O)O)c(Oc2ccccc2)c1 [Example 28, 3-(4-tert-butyl-2-phenoxyphenylsulfonamido)thiophene-2-carboxylic acid, disodium salt] | > 500 nM
Cc1cc(C)cc(-c2cccc(S(=O)(=O)Nc3ccsc3C(=O)O)c2)c1 [Example 42, 3-(3′,5′-dimethylbiphenyl-3-ylsulfonamido)thiophene-2-carboxylic acid, disodium salt] | > 500 nM
CC(C)(C)c1ccc(S(=O)(=O)Nc2c(C(=O)O)sc3ccccc23)cc1 [Example 24, 3-(4-tert-butylphenylsulfonamido)benzo[b]thiophene-2-carboxylic acid, disodium salt] | 100 to 500 nM
CCc1cc(C(C)(C)C)ccc1S(=O)(=O)Nc1ccsc1C(=O)O [Example 48, 3-(4-tert-butyl-2-ethylphenylsulfonamido)thiophene-2-carboxylic acid, disodium salt] | ≤ 100 nM
CCCc1cc(C(C)(C)C)ccc1S(=O)(=O)Nc1ccsc1C(=O)O [Example 56, 3-(4-tert-butyl-2-propylphenylsulfonamido)thiophene-2-carboxylic acid, disodium salt] | ≤ 100 nM
CC(C)(C)c1ccc(S(=O)(=O)Nc2ccsc2C(=O)O)c(-c2ccncc2Cl)c1 [Example 45, 3-[4-tert-Butyl-2-(3-chloropyridin-4-yl)phenyl-sulfonamido]thiophene-2-carboxylic acid] | > 500 nM
CC(C)c1ccccc1-c1cccc(S(=O)(=O)Nc2ccsc2C(=O)O)c1 [Example 43, 3-(2′-isopropylbiphenyl-3-ylsulfonamido)thiophene-2-carboxylic acid, disodium salt] | > 500 nM
CN(C)c1ccc(-c2cc(C(C)(C)C)ccc2S(=O)(=O)Nc2ccsc2C(=O)O)cc1 [Example 4, 3-[5-tert-butyl-4′-(dimethylamino)biphenyl-2-ylsulfonamido]thiophene-2-carboxylic acid, disodium salt] | > 500 nM
O=C(O)c1sccc1NS(=O)(=O)c1ccc2ccccc2c1 [Example 17, 3-(Naphthalene-2-sulfonamido)thiophene-2-carboxylic acid, disodium salt] | > 500 nM
CC(C)(C)c1ccc(S(=O)(=O)Nc2ccsc2C(=O)O)c(CCC2CC2)c1 [Example 57, 3-[4-tert-Butyl-2-(2-cyclopropylethyl)phenylsulfonamido]thiophene-2-carboxylic acid, disodium salt] | ≤ 100 nM
CCCCc1ccc(S(=O)(=O)Nc2ccsc2C(=O)O)cc1 [Example 38, 3-[4-(n-butylphenyl)sulfonamide]thiophene-2-carboxylic acid, disodium salt] | ≤ 100 nM
O=C(O)c1sccc1NS(=O)(=O)c1ccc(C(F)(F)F)cc1Br [Example 27, 3-[2-bromo-4-(trifluoromethyl)phenylsulfonamido]thiophene-2-carboxylic acid, disodium salt] | ≤ 100 nM
COc1cc(C(C)(C)C)ccc1S(=O)(=O)Nc1ccsc1C(=O)O [Example 8, 3-(tert-butyl-2-methoxyphenylsulfonamido)thiophene-2-carboxylic acid, disodium salt] | ≤ 100 nM
CCC(C)c1ccc(S(=O)(=O)Nc2ccsc2C(=O)O)cc1 (stereo not shown) [Example 14, 3-(4-sec-butylphenylsulfonamido)thiophene-2-carboxylic acid, disodium salt] | ≤ 100 nM

— US8178699B2, “Modulators of CCR9 receptor and methods of use thereof” (Pfizer Inc., priority 2008, dated 2012)
